From paper PMC3151326 (2011)
pIC50: −log10 of the molar value.

Biological target: PDE5 (Homo sapiens, UniProt O76074)
Experiment: cGMP PDE activity
Assay type: biochemical

## CSc1ccc(/C=C2/C(C)=C(CC(=O)O)c3cc(F)ccc32)cc1 [SS, sulindac sulfide]
  pIC50: ~4.00
